Assays:
[1] = target: T1, HCV NS3-NS4A protease (Hepatitis C virus genotype 1b, UniProt Q9WMX2); experiment: HCV protease assay (SensoLyte 620 HCV Protease Assay kit); format: biochemical; conditions: 1.2 nM HCV NS3-NS4A protease, 60 min at room temperature
T1 construct: using 1.2 nM HCV NS3-NS4A protease, which was obtained according to Taremi et al; made in house
Method: Measurement of the inhibitory effect of compounds on HCV protease activity was performed with the SensoLyte™ 620 HCV Protease Assay kit from AnaSpec, Inc. (San Jose, Calif.) under conditions described by the supplier using 1.2 nM HCV NS3-NS4A protease, which was obtained according to Taremi et al. (Protein Science, 1998, 7, 2143-2149). The compounds were tested at a variety of concentrations in assay buffer containing a final DMSO concentration of 5%. Reactions were allowed to proceed for 60 min at room temperature and fluorescence measurements were recorded with a Tecan Infinity Spectrofluorimeter. The IC50 values were determined from the percent inhibition versus concentration data using a sigmoidal non-linear regression analysis based on four parameters with Tecan Magellan software.

[2] = target: T2, HCV NS3-NS4A protease 1b (Hepatitis C virus genotype 1b, UniProt Q9WMX2); experiment: HCV protease assay (HiLyte Fluor TR/QXL 610 FRET peptide), genotype 1b; format: biochemical; conditions: 2-3 nM protease, 60 min at 30° C., read-out: IC50 Against HS3/4A 1b
T2 construct: using 2-3 nM HCV NS3-NS4A protease, which was produced according to the method of Taremi et al; made in house
T2 sequence (Q9WMX2 1027-1208): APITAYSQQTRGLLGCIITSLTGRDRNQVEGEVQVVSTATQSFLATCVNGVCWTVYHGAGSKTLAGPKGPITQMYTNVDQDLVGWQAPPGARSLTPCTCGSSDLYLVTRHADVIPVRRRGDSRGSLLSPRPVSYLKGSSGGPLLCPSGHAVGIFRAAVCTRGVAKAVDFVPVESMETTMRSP
Method: (§1) Measurement of the inhibitory effect of compounds on HCV protease activity was performed using the HiLyte Fluor™ TR/QXL™ 610 FRET peptide from AnaSpec, Inc. (San Jose, Calif.) under conditions developed in-house using 2-3 nM HCV NS3-NS4A protease, which was produced according to the method of Taremi et al. (Protein Science, 1998, 7, 2143-2149). The compounds were tested at a variety of concentrations in assay buffer containing a final DMSO concentration of 5%. Reactions were allowed to proceed for 60 min at 30° C. and fluorescence measurements were recorded with a PerkinElmer Victor^3 V 1420 Multilabel Counter. The IC50 values were determined from the percent inhibition versus concentration data using a sigmoidal non-linear regression analysis based on four parameters with XLfit 4.1 software.

[3] = target: T3, HCV NS3-NS4A protease 3a (Hepatitis C virus genotype 3a, UniProt Q81258); experiment: HCV protease assay (HiLyte Fluor TR/QXL 610 FRET peptide), genotype 3a; format: biochemical; conditions: 2-3 nM protease, 60 min at 30° C., read-out: IC50 Against HS3/4A 3a
T3 construct: using 2-3 nM HCV NS3-NS4A protease, which was produced according to the method of Taremi et al; made in house
T3 sequence (Q81258 1033-1214): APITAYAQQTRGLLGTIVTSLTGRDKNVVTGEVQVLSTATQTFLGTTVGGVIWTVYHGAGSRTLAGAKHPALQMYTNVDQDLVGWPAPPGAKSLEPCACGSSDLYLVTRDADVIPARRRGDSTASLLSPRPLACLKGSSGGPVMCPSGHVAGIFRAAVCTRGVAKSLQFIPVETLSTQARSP
Method: as §1

[4] = test system: HCV luciferase-bearing wild-type replicon in cured GS4.1 cells; experiment: Luciferase replicon transient transfection assay, wild-type replicon; format: cell-based
Method: (§2) The luciferase replicon transient transfection assay measures the ability of a test compound to inhibit the replication of a transiently-transfected HCV luciferase-bearing wild-type or mutant replicon in cured human hepatoma cells (cured GS4.1). The mutant replicons bear a specific single-site mutation in NS3 that is known to confer resistance to protease inhibitors currently in development. The inhibition of HCV replication was measured by quantification of luciferase protein expression. This assay has been validated using a panel of replicons bearing known protease inhibitor resistance mutations and their respective reference compounds. Briefly, subconfluent cured GS4.1 cells in OptiBuffer (ThermoElectron Corp.) were electroporated with 40 μg of wild-type or mutant luciferase-bearing HCV replicon RNA. The cells were then seeded in 96-well opaque white plates at 2.4×10^4 cells/well in 150 μL/well and incubated for 4 hours at 37° C./5% CO2. […] The plates were agitated on a rotating platform at room temperature for 3 minutes and read in a Victor^3V microplate reader (Perkin-Elmer) using a 700 nm cut-off filter with a 1 second read time. EC50 values were calculated from dose response curves from the resulting best-fit equations determined by Microsoft Excel and XLfit 4.1 software.

[5] = test system: HCV luciferase-bearing mutant replicon, NS3 R155K, in cured GS4.1 cells; experiment: Luciferase replicon transient transfection assay, R155K mutant replicon; format: cell-based
Method: as §2

[6] = test system: HCV luciferase-bearing mutant replicon, NS3 A156S, in cured GS4.1 cells; experiment: Luciferase replicon transient transfection assay, A156S mutant replicon; format: cell-based
Method: as §2

[7] = test system: HCV luciferase-bearing mutant replicon, NS3 A156T, in cured GS4.1 cells; experiment: Luciferase replicon transient transfection assay, A156T mutant replicon; format: cell-based
Method: as §2

[8] = test system: HCV luciferase-bearing mutant replicon, NS3 D168V, in cured GS4.1 cells; experiment: Luciferase replicon transient transfection assay, D168V mutant replicon; format: cell-based
Method: as §2

T1 sequence (Q9WMX2 1027-1208): as the sequence (Q9WMX2 1027-1208) above

**Q.** How did the IC50 [1] turn out when `COc1ccc2c(O[C@H]3CC[C@H]4C(=O)N(C)CCCC/C=C\[C@@H]5C[C@@]5(C(=O)NS(=O)(=O)C5(C)CC5)NC(=O)[C@@H]4C3)cc(-c3nc(C(F)(F)F)cs3)nc2c1C` [Compound 51] was run?
**A.** The IC50 was less than 1000 nM.

**Q.** And the IC50 [2]?
**A.** Its IC50 is less than 1000 nM.

**Q.** And the IC50 [3]?
**A.** The IC50 was less than 1000 nM.

**Q.** What about the “Fold Change, Wild Type replicon” value ([4]; EC50 fold change, wild-type replicon) of the same compound?
**A.** The value was 1.

**Q.** What about the EC50 ([4]; Hepatitis C virus, 96 h, read-out: EC50(nm), Wild Type replicon) of the same compound?
**A.** Its EC50 is 0.35 to 1.1 nM.

**Q.** What about the “Fold Change, R155K replicon” value ([5]; EC50 fold change, R155K replicon) of the same compound?
**A.** The value was 10-20.

**Q.** What about the EC50 ([5]; Hepatitis C virus, 96 h, read-out: EC50(nm), R155K replicon) of the same compound?
**A.** The EC50 was 5 to 15 nM.

**Q.** And the “Fold Change, A156S replicon” value ([6]; EC50 fold change, A156S replicon)?
**A.** The value was 0.2 to 0.6.

**Q.** What about the EC50 ([6]; Hepatitis C virus, 96 h, read-out: EC50(nm), A156S replicon) of the same compound?
**A.** Its EC50 is 0.1 to 0.35 nM.

**Q.** What about the “Fold Change, A156T replicon” value ([7]; EC50 fold change, A156T replicon) of the same compound?
**A.** Its value is 20-95.

**Q.** And the EC50 ([7]; Hepatitis C virus, 96 h, read-out: EC50(nm), A156T replicon)?
**A.** Its EC50 is 25 to 40 nM.

**Q.** And the “Fold Change, D168V replicon” value ([8]; EC50 fold change, D168V replicon)?
**A.** Its value is 1000-3000.

**Q.** And the EC50 ([8]; Hepatitis C virus, 96 h, read-out: EC50(nm), D168V replicon)?
**A.** Its EC50 is 2000 to 2750 nM.

Source: patent publication US9284307B2, “Macrocyclic serine protease inhibitors” (Idenix Pharmaceuticals LLC, priority 2009, dated 2016)
